Assays:
[1] = system: human breast cancer MDA-MB-231 cell line; assay: AlamarBlue cytotoxicity, 2,2′-BPBPA series, MDA-MB-231; format: cell-based; conditions: 24, 48, 72 h
Experimental: Cell culture methods. MCF-7 and MDA-MB-231 were incubated using DMEM at 37° C. in 5% CO2. The hFOB 1.19 cell lines were incubated with DMEM: F12 at 34° C. in 5% CO2.
Cell lines were supplemented using 10% FBS and 1% Pen-Strep. The media was replaced twice per week. Cell passages were carried out at 80% confluency.
Cell-based assays. Cell lines were seeded in 96 well plates at a density of 5x 10^3 cells/mL and incubated for 24 h before treatment. Cells were treated with 100 μL of 2,2′-BPBPA (0-400 μM), unloaded and loaded nano-Ca@2,2′-BPBPA (6.3-50 μM) for 24, 48, and 72 h.
Control groups were treated with media (DMEM or DMEM: F12) supplemented with 1% Pen-Strep. Cell viability was determined by employing AlamarBLue@. The media was replaced with 100 μL of 10% AlamarBlue® solution. After 24 h of incubation, the fluorescence was assessed at )max of 560 nm for excitation and 590 nm for emission.
Cell culture methods. MCF-7 and MDA-MB-231 were incubated using DMEM at 37° C. in 5% CO2. The hFOB 1.19 cell lines were incubated with DMEM: F12 at 34° C. in 5% CO2. Cell lines were supplemented using 10% FBS and 1% Pen-Strep. The media was replaced twice times per week. Cell passages were carried out at 80% confluency.
Seeding. […]
AlamarBlue@assay. […] Then, the fluorescence was assessed at 560 nm of excitation and λmax 590 nm of emission. […]

[2] = Release of letrozole from drug-loaded BPBPA-Ca in FaSSGF; format: physicochemical
Experimental: (§1) LET release curve from BPBPA-Ca. The release curve of LET from BPBPA-Ca was determined in FaSSGF. About 100 mL of FaSSGF were placed in a 250-mL beaker and left in constant stirring at 37° C. (150 rpm). To record the first time point (0 h), an aliquot (1 mL) was taken out before adding the drug-loaded BPBPA-Ca. Subsequently, about 20 mg of powdered drug-loaded BPBPA-Ca (experimental) were placed into the FaSSGF solution. After each time point (0, 1, 3, 6, 24, 48, and 72 h), an aliquot (1 mL) was taken out and diluted in a 5 mL volumetric flask. Once the experiment was completed, the absorbance was measured at 238 nm to determine the amount (%) of LET release from the BPBPA-Ca. The release curve of LET (control) in FaSSGF was determined for comparison. This experiment was accomplished in duplicate.
Furthermore, the release of LET from the drug-loaded BPBPA-Ca was investigated in FaSSGF (pH=1.60) at 37° C. The LET released from BPBPA-Ca was quantified by measuring the increase in the LET concentration over time of the supernatant at the lambda max (λmax=238 nm). It was noticed that the drug-loaded BPBPA-Ca reaches a maximum release of LET ([…]) at 24 h (FIG. 91B). […] These findings confirm that BPBPA-Ca can be degraded in acidic conditions and release its cargo (LET) in a controlled and pH-dependent manner.
as §1, with “Release experiment.” for “LET release curve from BPBPA-Ca.”, “performed” for “accomplished”, “duplicate. FIG. 150 depicts the release curve of LET from the BPBPA-Ca channels.” for “duplicate.”

LET released (mean) ([2]; FaSSGF pH 1.60, 37 °C, 1 h) [%] | LET released (mean) ([2]; FaSSGF, 3 h) [%] | LET released (mean) ([2]; FaSSGF, 6 h) [%] | LET released (mean) ([2]; FaSSGF, 24 h) [%] | LET released (mean) ([2]; FaSSGF, 48 h) [%] | LET released (mean) ([2]; FaSSGF, 72 h) [%] | Structure (SMILES) | IC50 [1] [µM]
– | – | – | – | – | – | O=P(O)(O)c1ccc(-c2ccc(P(=O)(O)O)cn2)nc1 [2,2′-BPBPA, 2,2′-bipyridine-5,5′-bisphosphonic acid] | > 200
65 | 72 | 75 | 93 | 94 | 94 | N#Cc1ccc(C(c2ccc(C#N)cc2)n2cncn2)cc1 [LET, letrozole] | –

From patent US20250296942A1, “Phosphonate-Based Coordination Complexes and Methods of Preparation and Use Thereof” (University of Puerto Rico, priority 2021, published 2025)
